According to ChEMBL document CHEMBL5634096, “Design, synthesis and bioevaluation of PI3Kα-selective inhibitors as potential colorectal cancer drugs” (Eur J Med Chem, 2023):
pIC50: −log10 of the molar value. Active and inactive are the calls of the source. No cut-off for these calls is given here.

Assays:
[1] = biological target: T1, Phosphatidylinositol 4,5-bisphosphate 3-kinase catalytic subunit delta isoform (Homo sapiens, UniProt O00329); test: Inhibition of PI3Kdelta (unknown origin) by ADP-Glo luminescent kinase assay
T1 sequence (O00329 whole entry): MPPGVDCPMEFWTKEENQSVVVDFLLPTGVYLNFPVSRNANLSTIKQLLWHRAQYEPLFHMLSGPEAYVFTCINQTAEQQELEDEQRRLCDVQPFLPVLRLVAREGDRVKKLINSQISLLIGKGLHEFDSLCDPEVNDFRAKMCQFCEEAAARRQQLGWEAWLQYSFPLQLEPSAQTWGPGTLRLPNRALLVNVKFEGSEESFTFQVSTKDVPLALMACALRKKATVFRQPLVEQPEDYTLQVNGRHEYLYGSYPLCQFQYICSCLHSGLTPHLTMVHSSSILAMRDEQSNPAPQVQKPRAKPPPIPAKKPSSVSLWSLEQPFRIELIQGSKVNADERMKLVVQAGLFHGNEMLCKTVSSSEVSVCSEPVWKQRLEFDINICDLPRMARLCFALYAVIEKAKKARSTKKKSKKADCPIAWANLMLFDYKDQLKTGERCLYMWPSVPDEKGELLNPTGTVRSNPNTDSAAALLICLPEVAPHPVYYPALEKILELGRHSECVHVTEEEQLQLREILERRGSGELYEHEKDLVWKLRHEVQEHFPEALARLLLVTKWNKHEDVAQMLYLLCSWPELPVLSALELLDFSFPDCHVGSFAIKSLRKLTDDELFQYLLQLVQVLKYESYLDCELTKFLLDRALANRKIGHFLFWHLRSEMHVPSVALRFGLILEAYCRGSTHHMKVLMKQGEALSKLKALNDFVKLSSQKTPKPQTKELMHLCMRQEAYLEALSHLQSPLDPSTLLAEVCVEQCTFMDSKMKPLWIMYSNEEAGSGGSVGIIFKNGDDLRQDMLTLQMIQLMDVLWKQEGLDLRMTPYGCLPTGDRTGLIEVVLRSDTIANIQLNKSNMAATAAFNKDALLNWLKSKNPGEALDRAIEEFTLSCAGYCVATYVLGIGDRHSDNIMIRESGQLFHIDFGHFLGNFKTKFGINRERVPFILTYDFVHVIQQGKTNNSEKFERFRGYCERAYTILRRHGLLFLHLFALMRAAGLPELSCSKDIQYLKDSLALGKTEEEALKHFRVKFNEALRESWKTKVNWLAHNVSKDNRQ

MCF7 = test: Antiproliferative activity against human MCF7 cells expressing PIK3CA with E545K mutation assessed as reduction in cell viability incubated for 24 to 48 hrs by CCK-8 assay; format: functional, cell-based
[2] = Cytotoxicity against human MCF-10A cells assessed as reduction in cell viability incubated for 24 to 48 hrs by CCK-8 assay; format: toxicity, cell-based
[3] = Metabolic stability in Sprague-Dawley rat liver microsomes assessed as compound remaining at 5 ug/ml incubated for 1 hr in presence of NADPH by LC-MS/MS analysis; format: ADME, Microsome; conditions: at 5 µg/mL, read-out: Stability
[4] = Metabolic stability in Sprague-Dawley rat liver microsomes assessed as half life at 5 ug/ml incubated for 1 hr in presence of NADPH by LC-MS/MS analysis; format: ADME, Microsome; conditions: dose 5 µg/ml
Cytochrome P450 1A2 = Cytochrome P450 1A2 (Homo sapiens, UniProt P05177); test: Inhibition of CYP1A2 in human liver microsomes using phenacetin as substrate pre-incubated for 30 mins followed by substrate addition and measured after 15 mins in presence of NADPH by LC/MS analysis; format: ADME, Microsome
Cytochrome P450 1A2, sequence (P05177 whole entry): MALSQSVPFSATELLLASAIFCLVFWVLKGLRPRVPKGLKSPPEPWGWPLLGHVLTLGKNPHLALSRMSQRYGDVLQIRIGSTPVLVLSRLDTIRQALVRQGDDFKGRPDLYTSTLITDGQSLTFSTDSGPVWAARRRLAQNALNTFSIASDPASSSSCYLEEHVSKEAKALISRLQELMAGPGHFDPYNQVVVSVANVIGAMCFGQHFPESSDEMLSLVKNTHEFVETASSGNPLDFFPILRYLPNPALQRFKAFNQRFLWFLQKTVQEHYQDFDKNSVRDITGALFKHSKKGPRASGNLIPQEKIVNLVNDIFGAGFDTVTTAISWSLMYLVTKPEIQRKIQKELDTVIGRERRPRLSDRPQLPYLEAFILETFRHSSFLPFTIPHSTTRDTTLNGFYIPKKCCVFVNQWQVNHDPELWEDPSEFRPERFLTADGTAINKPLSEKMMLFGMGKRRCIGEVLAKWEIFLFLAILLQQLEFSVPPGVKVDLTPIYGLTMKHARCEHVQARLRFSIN

Cytochrome P450 2C19 = Cytochrome P450 2C19 (Homo sapiens, UniProt P33261); test: Inhibition of CYP2C19 in human liver microsomes using omeprazole as substrate pre-incubated for 30 mins followed by substrate addition and measured after 15 mins in presence of NADPH by LC/MS analysis; format: ADME, Microsome
Cytochrome P450 2C19, sequence (P33261 whole entry): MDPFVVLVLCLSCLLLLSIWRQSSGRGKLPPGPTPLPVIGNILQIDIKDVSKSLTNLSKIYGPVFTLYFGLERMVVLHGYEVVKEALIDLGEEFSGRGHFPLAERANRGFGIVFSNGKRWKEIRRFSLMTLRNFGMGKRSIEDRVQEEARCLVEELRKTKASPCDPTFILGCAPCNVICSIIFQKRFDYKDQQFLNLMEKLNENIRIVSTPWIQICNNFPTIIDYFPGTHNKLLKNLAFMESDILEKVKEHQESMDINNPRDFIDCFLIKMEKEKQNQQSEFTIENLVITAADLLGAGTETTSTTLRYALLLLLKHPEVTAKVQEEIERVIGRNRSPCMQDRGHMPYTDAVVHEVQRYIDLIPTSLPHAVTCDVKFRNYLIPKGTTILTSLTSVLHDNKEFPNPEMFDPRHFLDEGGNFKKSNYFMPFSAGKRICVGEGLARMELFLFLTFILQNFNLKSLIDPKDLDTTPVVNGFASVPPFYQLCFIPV

[5] = AUC (0 to infinity) in Sprague-Dawley rat at 5 mg/kg, iv measured upto 24 hrs by LC-MS analysis; format: ADME, organism-based; conditions: in vivo
[6] = Clearance in Sprague-Dawley rat at 5 mg/kg, iv measured upto 24 hrs by LC-MS analysis; format: ADME, organism-based; conditions: in vivo
[7] = system: Receptor-type tyrosine-protein kinase FLT3 (Homo sapiens), P36888 [D835Y]; test: Inhibition of human FLT3 D835Y mutant at 1 uM
[8] = biological target: Serine/threonine-protein kinase 17A (Homo sapiens) (UniProt Q9UEE5); test: Inhibition of human DRAK1 at 1 uM
Serine/threonine-protein kinase 17A (Homo sapiens), sequence (Q9UEE5 whole entry): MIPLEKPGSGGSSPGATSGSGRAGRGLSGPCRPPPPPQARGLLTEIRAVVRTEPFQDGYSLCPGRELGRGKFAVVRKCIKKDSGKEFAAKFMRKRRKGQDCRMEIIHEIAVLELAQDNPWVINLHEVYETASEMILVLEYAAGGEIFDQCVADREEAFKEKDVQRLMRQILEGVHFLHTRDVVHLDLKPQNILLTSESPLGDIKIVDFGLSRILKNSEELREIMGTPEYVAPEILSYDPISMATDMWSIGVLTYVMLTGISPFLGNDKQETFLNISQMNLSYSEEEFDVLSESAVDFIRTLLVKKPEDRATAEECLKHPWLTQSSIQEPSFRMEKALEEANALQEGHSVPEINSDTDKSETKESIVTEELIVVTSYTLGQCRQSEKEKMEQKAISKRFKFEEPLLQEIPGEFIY

TE-1 = test: Antiproliferative activity against human TE-1 cells assessed as reduction in cell viability at 10 uM incubated for 24 to 48 hrs by CCK-8 assay; format: functional, cell-based; conditions: time lower […], time upper 48.0 hrs
5637 = test: Antiproliferative activity against human 5637 cells assessed as reduction in cell viability at 10 uM incubated for 24 to 48 hrs by CCK-8 assay; format: functional, cell-based; conditions: time lower […], time upper 48.0 hrs
CAL-62 = test: Antiproliferative activity against human CAL-62 cells assessed as reduction in cell viability at 10 uM incubated for 24 to 48 hrs by CCK-8 assay; format: functional, cell-based; conditions: time lower […], time upper 48.0 hrs
A-375 = test: Antiproliferative activity against human A-375 cells assessed as reduction in cell viability at 10 uM incubated for 24 to 48 hrs by CCK-8 assay; format: functional, cell-based; conditions: time lower […], time upper 48.0 hrs
HEK-293T = test: Cytotoxicity against human HEK293T cells assessed as reduction in cell viability at 10 uM incubated for 24 to 48 hrs by CCK-8 assay; format: toxicity, cell-based; conditions: time 24-48 hrs
HCT-116 [9] = test: Antiproliferative activity against human HCT-116 cells assessed as inhibition of colony formation at 3 to 12 uM incubated for 48 hrs by crystal violet staining based assay; format: functional, cell-based; conditions: dose 3-12 µM
HCT-116 [10] = test: Induction of cell cycle arrest in human HCT-116 cells assessed as increase in accumulation of cells at G1/G0 phase at 3 to 12 uM incubated for 48 hrs by PI staining based flow cytometry analysis (reference value: 36.6 %); format: functional; conditions: dose 3-12 µM
HCT-116 [11] = test: Induction of cell cycle arrest in human HCT-116 cells assessed as decrease in accumulation of cells at G2/M phase at 3 to 12 uM incubated for 48 hrs by PI staining based flow cytometry analysis (reference value: 16.5 %); format: functional; parameters: scale not given: the % may be the effect or the level left; conditions: dose 3-12 µM
HCT-116 [12] = test: Induction of apoptosis in human HCT-116 cells assessed as increased total apoptotic cells at 6 uM incubated for 48 hrs by Annexin V-FITC and propidium iodide staining based flow cytometry analysis (reference value: 4.22 %); format: functional
HCT-116 [13] = test: Antiproliferative activity against human HCT-116 cells assessed as inhibition of PI3K phosphorylation incubated for 48 hrs by Western blotting analysis; format: functional, cell-based; conditions: dose 3-12 µM
HCT-116 [14] = test: Induction of cell cycle arrest at G1/G0 phase in human HCT-116 cells assessed as decrease in cyclinE1 expression incubated for 48 hrs by Western blotting analysis; format: functional, cell-based; conditions: dose 3-12 µM
HCT-116 [15] = test: Induction of cell cycle arrest at G1/G0 phase in human HCT-116 cells assessed as decrease in cyclinD1 expression incubated for 48 hrs by Western blotting analysis; format: functional, cell-based; conditions: dose 3-12 µM
[16] = Metabolic stability in Sprague-Dawley rat plasma assessed as compound remaining measured upto 3 hrs by LC-MS/MS analysis; format: ADME, cell-free

Nc1nc2cc(-c3ccc4ncc(N5C[C@@H]6OCCO[C@@H]6C5)nc4c3)ccc2o1
pIC50 [1]: 6.95
pIC50 (MCF7): 5.48
pIC50 [2]: 4.27
remaining at 1 h, 5 ug/ml [3]: 82.3%
half-life at 5 ug/ml [4]: 3.61 h
pIC50 (Cytochrome P450 1A2): < 5.00
pIC50 (Cytochrome P450 2C19): < 5.00
AUC(0-inf) [5]: 8250 ng·h/mL
clearance [6]: 10 mL/min/kg
inhibition [7]: Active
inhibition [8]: Active
Activity (TE-1): Active
Activity 5637: Active
Activity (CAL-62): Active
Activity (A-375): Active
Activity (HEK-293T): Toxic
Activity (HCT-116 [9]): Active
Activity (HCT-116 [10]): 43.2%
Activity (HCT-116 [11]): 19%
Activity (HCT-116 [12]): 12.31%
Activity (HCT-116 [13]): Dose-Dependent Effect
Activity (HCT-116 [14]): Dose-Dependent Effect
Activity (HCT-116 [15]): Dose-Dependent Effect
Stability [16]: Stable
